Measurements: US4632905A, “Microbial sulfhydryl oxidase” (Novo Laboratories, Inc., priority 1985, dated 1986)
“And” between values parts separate entries of the source, which are not always exact repeats. Equal entries are not always repeated.

Tests used:
Type in all cases: biochemical
[1] = tested on: Aspergillus sojae SOX; assay: Substrate specificity of SOX toward low MW thiol compounds, polarographic (oxygen consumption); details: 1 mM test compound, 227 μM oxygen, 50 mM potassium phosphate pH 6.7, 30° C., corrected for auto-oxidation
Protocol: SOX activity may be ascertained by two methods. The activity may be determined by measuring the oxygen consumed when a suitable substrate, e.g., reduced glutathione, is oxidized enzymatically to the corresponding disulfide. The stoichiometry involved is according to the equations 1 and 2 below, namely, 1/2 oxygen consumed per disulfide formed, when the reaction is carried out in the presence of catalase activity.
The assay employs oxygen electrode techniques and is used with low MW compounds as substrates.
The ability of low MW thiol-containing compounds to serve as substrates for SOX was determined polarographically at 30° C., pH 6.7. […] Protein specificity was determined with proteins in their reductively denatured state. Reductive denaturation is accomplished by submitting the protein to a denaturant e.g., urea and a mercaptan such as beta-mercaptoethanol at pH 8.5. Renaturation is then achieved by incubating the reduced protein with the SOX for a period of time at pH 7.0. The progress of the renaturation can easily be assessed by reaction of the protein with DTNB.
The activity of the SOX preparation may be determined polarographically by measuring the oxygen consumed when a substrate e.g., reduced glutathione (GSH) is oxidized to the corresponding disulfide. The activity may also be determined spectrophotometrically using dithiobisnitrobenzoic acid (DTNB) which specifically reacts with a free sulfhydryl by measuring the absorption at 412 nm (ε=13.6×10^3 M^-1 cm^-1). Therefore, one unit of activity is defined as that amount of enzyme which catalyzes the consumption of 1.0 μmole of oxygen per minute or loss of 2.0 μmoles of free sulfhydryls per minute at 30° C., pH 6.7 using 1 mM GSH as substrate.
The substrate specificity of SOX toward low MW compounds containing a free SH moiety was ascertained by polarographic methodology. The activities were measured relative to glutathione (GSH) at 30° C. in the following assay system: 1 mM test compound, 227 μM molecular oxygen, 50 mM potassium phosphate pH 6.7, and sufficient SOX to yield a linear decrease in oxygen during the first three minutes. The rates were corrected for auto-oxidation.

[2] = tested on: Aspergillus sojae SOX; assay: Inhibition of Aspergillus sojae SOX
[3] = tested on: bovine SOX; assay: Inhibition of bovine SOX; details: 1 mM concentration

In the case of O[C@H](CS)[C@H](O)CS (racemic) [D,L--dithiothreitol, D,L-dithiothreitol], the “% of Activity with GSH” value [1] is reported as 5.6% and the “% of Activity with GSH” value ([1]; listed as D,L-dithiothreitol) is reported as 3-22%.
In the case of N[C@H](CS)C(=O)O [D--cysteine, D-cysteine], the “% of Activity with GSH” value [1] is reported as 4.1% and the “% of Activity with GSH” value ([1]; listed as D-cysteine) is reported as 3-22%.
In the case of O=C(O)CN(CCN(CC(=O)O)CC(=O)O)CC(=O)O [EDTA], the “Inhibition of Aspergillus sojae SOX” value ([2]; concentration not printed for this enzyme) is reported as “not inhibited” and the “Inhibition of bovine SOX” value [3] is reported as “almost completely”.
With N[C@@H](CS)C(=O)O [L--cysteine, L-Cysteine] the “% of Activity with GSH” value [1] was 8.7% and the “% of Activity with GSH” value ([1]; listed as L-Cysteine) was 3-22%.
In the case of CCOC(=O)[C@@H](N)CS [L--cysteine, ethyl ester, L-cysteine ethyl ester], the “% of Activity with GSH” value [1] is reported as 21.8% and the “% of Activity with GSH” value ([1]; listed as L-cysteine ethyl ester) is reported as 3-22%.
In the case of CC(=O)N[C@@H](CS)C(=O)O [N--acetyl-L--cysteine, N-acetyl-L-cysteine], the “% of Activity with GSH” value [1] is reported as 3.0% and the “% of Activity with GSH” value ([1]; listed as N-acetyl-L-cysteine) is reported as 3-22%.
With O=S(=O)([O-])[O-].[Zn+2] [ZnSO4] the “Inhibition of microbial SOX” value ([2]; 1 mM concentration) was “partially inhibited” and the “Inhibition of bovine SOX” value [3] was “non-inhibitory”.
With OCCS [beta-mercaptoethanol] the “% of Activity with GSH” value [1] was 3-22% and 4.2%.
O[C@H](CS)[C@@H](O)CS [dithioerythreitol, D,L-dithioerythreitol] was tested, and the “% of Activity with GSH” value [1] was 6.6% and the “% of Activity with GSH” value ([1]; listed as D,L-dithioerythreitol) was 3-22%.
For N[C@@H](CCC(=O)N[C@@H](CS)C(=O)NCC(=O)O)C(=O)O [glutathione, δ-L-glutamyl-L-cysteinyl-glycine], the “% of Activity with GSH” value [1] was 100%.
